For this test, the system named is T1, myrosinase from Lepidium sativum seeds.
T1 construct: gene beta-thioglucoside glucohydrolase
The test is described as follows: glucose release, glucose oxidase-peroxidase coupled assay, Michaelis-Menten fit. The following applies: pH 6.0, 37 °C, 100 μM L-ascorbic acid; read-out: KM (×10^-3 mol/L). In kind it is biochemical. The source says: glucose release, glucose oxidase-peroxidase coupled assay, Michaelis-Menten fit on myrosinase from Lepidium sativum seeds
Consider `C[S+]([O-])CCCC/C(=N/OS(=O)(=O)O)S[C@@H]1O[C@H](CO)[C@@H](O)[C@H](O)[C@H]1O` (stereo partly drawn) [Glucoraphanin], for which the Km stood at 1130 ± 256 µM.
With `O=S(=O)(O)O/N=C(/Cc1ccc(O)cc1)S[C@@H]1O[C@H](CO)[C@@H](O)[C@H](O)[C@H]1O` [Sinalbin], the Km amounted to 632 ± 235 µM.
For `C=CC/C(=N/OS(=O)(=O)O)S[C@@H]1O[C@H](CO)[C@@H](O)[C@H](O)[C@H]1O` [Sinigrin], the Km was determined as 574 ± 237 µM.

These data come from PMC8945721, “Sulphoraphane Affinity-Based Chromatography for the Purification of Myrosinase from Lepidium sativum Seeds” (Biomolecules, 2022).
